Experimental data: ChEMBL document CHEMBL6177943, “Recent advances in small molecule design strategies against hepatic fibrosis” (Eur J Med Chem, 2025)

What was measured:
LX-2 = experiment: Anti-fibrotic activity in human LX-2 cells assessed as inhibition of alpha-SMA mRNA expression; format: functional; parameters: scale not given: the % may be the effect or the level left
[1] = molecular target: Collagen alpha-1(I) chain (Homo sapiens) (UniProt P02452); experiment: Inhibition of COL1A1 (unknown origin) transfected in human LX-2 cells at 40 uM incubated for 24 hrs by Bright-Glo luciferase assay relative to control; format: cell-based
Chain of Collagen alpha-1(I) chain (Homo sapiens) (P02452 whole entry): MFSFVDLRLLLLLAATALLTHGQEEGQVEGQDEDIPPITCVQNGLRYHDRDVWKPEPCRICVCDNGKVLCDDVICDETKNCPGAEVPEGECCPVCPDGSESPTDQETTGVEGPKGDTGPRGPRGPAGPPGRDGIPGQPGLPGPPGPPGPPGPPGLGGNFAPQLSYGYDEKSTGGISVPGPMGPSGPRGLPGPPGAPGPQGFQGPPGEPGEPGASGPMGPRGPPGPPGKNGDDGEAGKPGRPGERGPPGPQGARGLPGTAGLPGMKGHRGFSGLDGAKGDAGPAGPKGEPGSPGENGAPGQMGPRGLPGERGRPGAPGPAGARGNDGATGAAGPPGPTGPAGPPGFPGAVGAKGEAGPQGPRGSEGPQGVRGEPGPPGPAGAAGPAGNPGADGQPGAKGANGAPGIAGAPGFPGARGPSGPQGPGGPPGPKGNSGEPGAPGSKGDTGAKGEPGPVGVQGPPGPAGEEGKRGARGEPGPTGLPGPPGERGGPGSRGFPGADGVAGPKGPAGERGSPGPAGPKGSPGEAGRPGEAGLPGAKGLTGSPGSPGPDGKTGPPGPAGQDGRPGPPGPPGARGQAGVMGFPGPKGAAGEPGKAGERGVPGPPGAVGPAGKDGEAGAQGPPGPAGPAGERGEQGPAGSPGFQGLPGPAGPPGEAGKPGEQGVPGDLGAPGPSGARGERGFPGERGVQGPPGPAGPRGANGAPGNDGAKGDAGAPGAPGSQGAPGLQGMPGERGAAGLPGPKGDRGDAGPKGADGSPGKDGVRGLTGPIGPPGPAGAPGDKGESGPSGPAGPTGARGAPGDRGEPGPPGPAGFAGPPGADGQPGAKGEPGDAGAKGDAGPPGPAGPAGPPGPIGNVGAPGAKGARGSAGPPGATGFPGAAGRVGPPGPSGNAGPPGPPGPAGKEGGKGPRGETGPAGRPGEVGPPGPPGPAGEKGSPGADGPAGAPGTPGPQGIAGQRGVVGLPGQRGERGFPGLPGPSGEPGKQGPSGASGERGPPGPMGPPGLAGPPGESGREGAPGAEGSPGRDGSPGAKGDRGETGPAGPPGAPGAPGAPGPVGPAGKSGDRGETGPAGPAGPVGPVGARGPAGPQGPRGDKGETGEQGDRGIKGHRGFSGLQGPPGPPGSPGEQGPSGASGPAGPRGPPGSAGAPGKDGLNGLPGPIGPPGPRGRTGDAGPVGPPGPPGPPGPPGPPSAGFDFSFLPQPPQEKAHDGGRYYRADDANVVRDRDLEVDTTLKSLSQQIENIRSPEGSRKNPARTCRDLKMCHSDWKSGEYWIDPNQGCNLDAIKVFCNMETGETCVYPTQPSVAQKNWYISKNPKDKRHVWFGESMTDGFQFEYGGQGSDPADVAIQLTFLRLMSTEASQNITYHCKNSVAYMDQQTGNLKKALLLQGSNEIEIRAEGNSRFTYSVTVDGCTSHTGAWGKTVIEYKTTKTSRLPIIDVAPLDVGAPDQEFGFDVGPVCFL

[2] = Anti-hepatic activity in rat HSC-T6 cells assessed as inhibition of LPS-induced cell proliferation at 10 uM incubated for 24 hrs by MTS assay relative to control; format: functional
[3] = Cmax in Sprague-Dawley rat at 25 mg/kg, po measured after 8 hrs; format: ADME, organism-based; conditions: in vivo

## CCCCCCCCN(C)C(=O)c1cc(O)c(O)c(O)c1
LX-2
  Activity: 47.7%

## C1=C2CCCN[C@H]2[C@@H]2C[C@H]1[C@H]1CCCCN1C2
[1]
  inhibition: 4.7%

## COC(=O)c1cc2cc(OC)c(OC)cc2c2cc(C)ccc12
[2]
  inhibition at 10 µM: 34.2%

## O=c1cccc2n1CC1CC2CN(Cc2cc(Cl)ccc2Cl)C1 (stereo not given)
[3]
  Cmax: 960 nM

## O=c1cccc2n1C[C@@H]1CNC[C@H]2C1
[1]
  inhibition: 90%
